Values quoted from earlier work as cited in patent US6239177A, “Tranilast-containing preparation for external application and method of producing the same” (Lead Chemical Co., Ltd., priority 1996, dated 2001).
Like-named read-outs stand apart in the source and are kept apart here.

Assays:
[1] = system: carrageenan-induced granulation tissue; conditions: for drug concentration in the skin tissue: one hour after final administration, 60 min
[2] = system: keloid and hypertrophic scar; conditions: Ichikawa 1992; Suzawa 1992

COc1ccc(C=CC(=O)Nc2ccccc2C(=O)O)cc1OC [tranilast, N-(3,4-dimethoxycinnamoyl)-anthranilic acid]
drug concentration in the skin tissue ([1]; oral 50 mg/kg for consecutive 14 days): 4.2 ± 0.4 µg/g
drug concentration in the skin tissue ([1]; oral 100 mg/kg for consecutive 14 days): 10.3 ± 0.9 µg/g
drug concentration in the skin tissue ([1]; oral 200 mg/kg for consecutive 14 days): 23.17 ± 1.7 µg/g
inhibitory effect (carrageenan-induced granulation tissue) ([1]; oral 50, 100, and 200 mg/kg for consecutive 14 days): dose-dependent inhibitory effect was observed
pharmaceutical effect on keloid and hypertrophic scar [2]: excellent pharmaceutical effect
solubility in dimethyl formamide, pyridine, dioxane, and acetone (dimethyl formamide, pyridine, dioxane, acetone): soluble
solubility in a kind of fatty acid and its ester, animal and vegetable oils and fats, terpene compounds, and alcohols (fatty acids/esters, oils and fats, terpenes, alcohols): can be solved to some extent
solubility in methanol, ethanol, ethyl acetate (methanol, ethanol, ethyl acetate): hardly soluble
solubility in water: extremely sparingly soluble
solubility in water (listed as Tranilast): sparingly soluble
